Assays:
Assay type in all cases: in vivo
[1] = test system: Bermudagrass v. Tifway 419; test: Phytotoxicity via post emergence spray application (Table B2.3)
Method: (§1) The phytotoxicity of the compound of formula I to turfgrass species was tested. The compound was applied via post emergence spray to a range of warm and cool season turfgrass species at various rates and spray treatment treatment regimes. Percentage phytotoxicity assessments were taken at various timepoints.

Bluegrass/fescue mix = test: Phytotoxicity via post emergence spray application (Table B2.7); conditions: 1 appl
Method: as §1

[2] = test system: St. Augustinegrass v. Delmar; test: Phytotoxicity via granule application (Table B3.1)
Method: The phytotoxicity of the compound of formula I to turfgrass species was tested. The compound was applied by distribution of granule formulations of formula I, post emergence, to turfgrass species at two rates. All treatments were watered-in 1 day after application. Percentage phytotoxicity assessments were taken at various timepoints.
Two granule formulations were made and tested. Granule A is an inert granule formulation, comprising 99.06 wt % DG Lite 150 granules, 0.14 wt % compound of formula I, 0.50 wt % Sunspray 6N, and 0.30 wt % HiSil 233. The compound of formula I was added to the DG Lite granules while blending in a Continental Rollo-mixer.
Sunspray 6N oil was then sprayed onto the granules, and HiSil added to dry excess liquid and improve granule flowability. The granules were blended in the mixer for 20-30 minutes until homogeneous, and passed through a −12/+60 mesh to remove over and under sized particles.
Granule B is a fertiliser granule formulation, comprising 54.65 wt % urea, 6.63 wt % triple super phosphate, 4.95 wt % potassion chloride, 9.91 wt % huber clay, 7.22 wt % HiSil 233, 0.16 wt % compound of formula I, […] agnique ME 181, 2.07 wt % stepfac 8180, and 11.98 wt % water. […] The remaining HiSil was added and granules dried at 40-60° C., to remove excess liquid. Finally, the granules were passed through a −12/+60 mesh to remove over and under sized particles.

[3] = test system: Trifolium repens (white clover); test: Weed control via post emergence spray, in St. Augustinegrass v. Floratam (Table B5.4)
Method: The weed control efficacy of the compound of formula I was tested. The compound was applied via post emergence spray to a range of weeds, at various rates and spray treatment treatment regimes. Percentage weed control assessments were taken at various timepoints.

[4] = test system: St. Augustinegrass v. Delmar; test: Phytotoxicity via granule application (Table B3.1); remark: listed apart in the source

## COCCOCc1nc(C(F)(F)F)ccc1C(=O)C1=C(O)C2CCC(C2)C1=O (stereo not drawn) [Formula I, 4-Hydroxy-3-[2-(2-methoxyethoxymethyl)-6-trifluoromethylpyridine-3-carbonyl]-bicyclo[3.2.1]oct-3-en-2-one]
[1]; 1 appl, 140 g ai/ha, 8 DAT
  % phytotoxicity: 36.25%
[1]; 1 appl, 140 g ai/ha, 14 DAT
  % phytotoxicity: 28.75%
[1]; 1 appl, 140 g ai/ha, 29 DAT
  % phytotoxicity: 1.25%
[1]; 1 appl, 140 g ai/ha, 35 DAT
  % phytotoxicity: 0.00%
[1]; 1 appl, 140 g ai/ha, 43 DAT
  % phytotoxicity: 0.00%
[1]; 1 appl, 140 g ai/ha, 51 DAT
  % phytotoxicity: 0.00%
[1]; 1 appl, 140 g ai/ha, 60 DAT
  % phytotoxicity: 0.00%
[1]; 1 appl, 280 g ai/ha, 8 DAT
  % phytotoxicity: 35.00%
[1]; 1 appl, 280 g ai/ha, 14 DAT
  % phytotoxicity: 52.50%
[1]; 1 appl, 280 g ai/ha, 29 DAT
  % phytotoxicity: 1.25%
[1]; 1 appl, 280 g ai/ha, 35 DAT
  % phytotoxicity: 0.00%
[1]; 1 appl, 280 g ai/ha, 43 DAT
  % phytotoxicity: 0.00%
[1]; 1 appl, 280 g ai/ha, 51 DAT
  % phytotoxicity: 0.00%
[1]; 1 appl, 280 g ai/ha, 60 DAT
  % phytotoxicity: 0.00%
[1]; 2 appl, 140 g ai/ha, 8 DAT
  % phytotoxicity: 26.25%
[1]; 2 appl, 140 g ai/ha, 14 DAT
  % phytotoxicity: 31.25%
[1]; 2 appl, 140 g ai/ha, 29 DAT
  % phytotoxicity: 0.00%
[1]; 2 appl, 140 g ai/ha, 35 DAT
  % phytotoxicity: 30.00%
[1]; 2 appl, 140 g ai/ha, 43 DAT
  % phytotoxicity: 18.75%
[1]; 2 appl, 140 g ai/ha, 51 DAT
  % phytotoxicity: 7.50%
[1]; 2 appl, 140 g ai/ha, 60 DAT
  % phytotoxicity: 0.00%
[1]; 2 appl, 280 g ai/ha, 8 DAT
  % phytotoxicity: 36.25%
[1]; 2 appl, 280 g ai/ha, 14 DAT
  % phytotoxicity: 52.50%
[1]; 2 appl, 280 g ai/ha, 29 DAT
  % phytotoxicity: 3.75%
[1]; 2 appl, 280 g ai/ha, 35 DAT
  % phytotoxicity: 28.75%
[1]; 2 appl, 280 g ai/ha, 43 DAT
  % phytotoxicity: 22.50%
[1]; 2 appl, 280 g ai/ha, 51 DAT
  % phytotoxicity: 8.75%
[1]; 2 appl, 280 g ai/ha, 60 DAT
  % phytotoxicity: 0.00%
Bluegrass/fescue mix; 10 g ai/ha, 7 DAT
  % phytotoxicity: 0.00%
Bluegrass/fescue mix; 10 g ai/ha, 14 DAT
  % phytotoxicity: 0.00%
Bluegrass/fescue mix; 10 g ai/ha, 22 DAT
  % phytotoxicity: 0.00%
Bluegrass/fescue mix; 10 g ai/ha, 29 DAT
  % phytotoxicity: 0.00%
Bluegrass/fescue mix; 10 g ai/ha, 46 DAT
  % phytotoxicity: 0.00%
Bluegrass/fescue mix; 20 g ai/ha, 7 DAT
  % phytotoxicity: 0.00%
Bluegrass/fescue mix; 20 g ai/ha, 14 DAT
  % phytotoxicity: 0.00%
Bluegrass/fescue mix; 20 g ai/ha, 22 DAT
  % phytotoxicity: 0.00%
Bluegrass/fescue mix; 20 g ai/ha, 29 DAT
  % phytotoxicity: 0.00%
Bluegrass/fescue mix; 20 g ai/ha, 46 DAT
  % phytotoxicity: 0.00%
Bluegrass/fescue mix; 40 g ai/ha, 7 DAT
  % phytotoxicity: 0.00%
Bluegrass/fescue mix; 40 g ai/ha, 14 DAT
  % phytotoxicity: 0.00%
Bluegrass/fescue mix; 40 g ai/ha, 22 DAT
  % phytotoxicity: 0.00%
Bluegrass/fescue mix; 40 g ai/ha, 29 DAT
  % phytotoxicity: 0.00%
Bluegrass/fescue mix; 40 g ai/ha, 46 DAT
  % phytotoxicity: 0.00%
Bluegrass/fescue mix; 80 g ai/ha, 7 DAT
  % phytotoxicity: 0.00%
Bluegrass/fescue mix; 80 g ai/ha, 14 DAT
  % phytotoxicity: 0.00%
Bluegrass/fescue mix; 80 g ai/ha, 22 DAT
  % phytotoxicity: 0.00%
Bluegrass/fescue mix; 80 g ai/ha, 29 DAT
  % phytotoxicity: 0.00%
Bluegrass/fescue mix; 80 g ai/ha, 46 DAT
  % phytotoxicity: 0.00%
Bluegrass/fescue mix; 160 g ai/ha, 7 DAT
  % phytotoxicity: 0.00%
Bluegrass/fescue mix; 160 g ai/ha, 14 DAT
  % phytotoxicity: 2.50%
Bluegrass/fescue mix; 160 g ai/ha, 22 DAT
  % phytotoxicity: 0.00%
Bluegrass/fescue mix; 160 g ai/ha, 29 DAT
  % phytotoxicity: 0.00%
Bluegrass/fescue mix; 160 g ai/ha, 46 DAT
  % phytotoxicity: 0.00%
[2]; Granule A (inert), 112 g ai/ha, 7 DAT
  % phytotoxicity: 8.30%
[2]; Granule A (inert), 112 g ai/ha, 20 DAT
  % phytotoxicity: 0.00%
[2]; Granule A (inert), 280 g ai/ha, 7 DAT
  % phytotoxicity: 20.00%
[2]; Granule A (inert), 280 g ai/ha, 11 DAT
  % phytotoxicity: 5.70%
[2]; Granule A (inert), 280 g ai/ha, 15 DAT
  % phytotoxicity: 3.30%
[2]; Granule B (fertiliser), 112 g ai/ha, 7 DAT
  % phytotoxicity: 23.30%
[2]; Granule B (fertiliser), 112 g ai/ha, 11 DAT
  % phytotoxicity: 10.00%
[2]; Granule B (fertiliser), 112 g ai/ha, 15 DAT
  % phytotoxicity: 5.00%
[2]; Granule B (fertiliser), 280 g ai/ha, 11 DAT
  % phytotoxicity: 20.00%
[3]; 1 appl, 140 g ai/ha, 5 DAT
  % control: 21.67%
[3]; 1 appl, 140 g ai/ha, 13 DAT
  % control: 86.67%
[3]; 1 appl, 140 g ai/ha, 21 DAT
  % control: 85.00%
[3]; 1 appl, 140 g ai/ha, 27 DAT
  % control: 88.33%
[3]; 1 appl, 140 g ai/ha, 35 DAT
  % control: 78.33%
[3]; 1 appl, 140 g ai/ha, 42 DAT
  % control: 76.67%
[3]; 1 appl, 140 g ai/ha, 61 DAT
  % control: 76.67%
[3]; 1 appl, 280 g ai/ha, 5 DAT
  % control: 25.00%
[3]; 1 appl, 280 g ai/ha, 13 DAT
  % control: 91.67%
[3]; 1 appl, 280 g ai/ha, 21 DAT
  % control: 90.00%
[3]; 1 appl, 280 g ai/ha, 27 DAT
  % control: 93.33%
[3]; 1 appl, 280 g ai/ha, 35 DAT
  % control: 91.67%
[3]; 1 appl, 280 g ai/ha, 42 DAT
  % control: 90.00%
[3]; 1 appl, 280 g ai/ha, 61 DAT
  % control: 90.00%
[3]; 2 appl, 140 g ai/ha, 5 DAT
  % control: 25.00%
[3]; 2 appl, 140 g ai/ha, 13 DAT
  % control: 88.33%
[3]; 2 appl, 140 g ai/ha, 21 DAT
  % control: 86.67%
[3]; 2 appl, 140 g ai/ha, 27 DAT
  % control: 91.67%
[3]; 2 appl, 140 g ai/ha, 35 DAT
  % control: 96.00%
[3]; 2 appl, 140 g ai/ha, 42 DAT
  % control: 96.67%
[3]; 2 appl, 140 g ai/ha, 61 DAT
  % control: 100.00%
[3]; 2 appl, 280 g ai/ha, 5 DAT
  % control: 26.67%
[3]; 2 appl, 280 g ai/ha, 13 DAT
  % control: 95.00%
[3]; 2 appl, 280 g ai/ha, 21 DAT
  % control: 93.33%
[3]; 2 appl, 280 g ai/ha, 27 DAT
  % control: 95.00%
[3]; 2 appl, 280 g ai/ha, 35 DAT
  % control: 99.33%
[3]; 2 appl, 280 g ai/ha, 42 DAT
  % control: 100.00%
[3]; 2 appl, 280 g ai/ha, 61 DAT
  % control: 100.00%
[4]; Granule A (inert), 112 g ai/ha, 11 DAT
  % phytotoxicity: 1.30%
[4]; Granule A (inert), 112 g ai/ha, 15 DAT
  % phytotoxicity: 0.70%
[4]; Granule A (inert), 112 g ai/ha, 28 DAT
  % phytotoxicity: 0.00%
[4]; Granule A (inert), 280 g ai/ha, 20 DAT
  % phytotoxicity: 0.00%
[4]; Granule A (inert), 280 g ai/ha, 28 DAT
  % phytotoxicity: 0.00%
[4]; Granule B (fertiliser), 112 g ai/ha, 20 DAT
  % phytotoxicity: 1.30%
[4]; Granule B (fertiliser), 112 g ai/ha, 28 DAT
  % phytotoxicity: 0.00%
[4]; Granule B (fertiliser), 280 g ai/ha, 7 DAT
  % phytotoxicity: 36.70%
[4]; Granule B (fertiliser), 280 g ai/ha, 15 DAT
  % phytotoxicity: 11.70%
[4]; Granule B (fertiliser), 280 g ai/ha, 20 DAT
  % phytotoxicity: 5.00%
[4]; Granule B (fertiliser), 280 g ai/ha, 28 DAT
  % phytotoxicity: 1.70%
[4]; Spray, 112 g ai/ha, 7 DAT
  % phytotoxicity: 36.70%
[4]; Spray, 112 g ai/ha, 11 DAT
  % phytotoxicity: 20.00%
[4]; Spray, 112 g ai/ha, 15 DAT
  % phytotoxicity: 9.30%
[4]; Spray, 112 g ai/ha, 20 DAT
  % phytotoxicity: 4.00%
[4]; Spray, 112 g ai/ha, 28 DAT
  % phytotoxicity: 0.00%
[4]; Spray, 280 g ai/ha, 7 DAT
  % phytotoxicity: 60.00%
[4]; Spray, 280 g ai/ha, 11 DAT
  % phytotoxicity: 43.30%
[4]; Spray, 280 g ai/ha, 15 DAT
  % phytotoxicity: 20.00%
[4]; Spray, 280 g ai/ha, 20 DAT
  % phytotoxicity: 10.00%
[4]; Spray, 280 g ai/ha, 28 DAT
  % phytotoxicity: 3.30%

From patent publication US20100184596A1, “METHOD FOR THE CONTROL OF WEEDS IN TURF” (SYNGENTA CROP PROTECTION, INC., priority 2007, published 2010)
